Test results reported in US9067935B2 (Janssen Pharmaceutica, NV, priority 2010, dated 2015).
“And” between values parts separate entries of the source, which are not always exact repeats. Equal entries are not always repeated. Where two headings read alike, the source gives them in different places.

Legend:
[1] = molecular target: canine TRPM8 (Canis lupus familiaris, UniProt Q1A7N1); experiment: In Vitro Canine TRPM8 Functional Assay (intracellular Ca2+ fluorescence, icilin challenge); assay type: cell-based; conditions: for IC50: icilin at ~80% maximal response
Protocol: The functional activity of compounds of the formula (I) was determined by measuring changes in intracellular calcium concentration using a Ca^2+-sensitive fluorescent dye. The changes in fluorescent signal were monitored by a fluorescence plate reader, either a FLIPR™ (Molecular Devices) or FDSS (Hamamatsu).
At 24 hrs prior to assay, HEK293 cells stably expressing canine TRPM8 were seeded in culture medium in black wall, clear-base poly-D-lysine coated 384-well plates (BD Biosciences, NJ, USA) and grown overnight in 5% CO2 at 37° C. On assay day, growth media was removed and cells were loaded with Calcium 3 Dye (Molecular Devices) for 35 min at 37° C., under 5% CO2 and then for 25 min at room temperature and atmosphere. Subsequently, cells were tested for agonist-induced increases in intracellular Ca^2+ levels using FLIPR™ or FDSS. Cells were challenged with a compound of the Formula (I) (at varying concentrations) and intracellular Ca^2+ was measured for 5 min prior to the addition of icilin to all wells to achieve a final concentration that produces approximately an 80% maximal response. EC50 or IC50 values for compounds of the present invention were determined from eight-point dose-response studies. Curves were generated using the average of quadruplicate wells for each data point.

[2] = system: Male Sprague Dawley rats; experiment: Inhibition of Icilin-Induced "Wet-Dog" Shakes in Rats; assay type: in vivo; conditions: rat, dose 10, p.o.
Protocol: Similar shaking or jumping behavior was also evident in mice, rabbits, cats, dogs and monkeys. In humans, icilin produced a sensation of coolness on contact with mucous membranes, cold prickling when 0.1 mg was dropped on the tongue and coldness in the mouth, pharynx and chest lasting 30-60 minutes when 5-10 mg was ingested orally (Wei E T, Seid D A, J Pharm Pharmacol. 1983, 35, 110). The inhibition or reversal of icilin-induced shaking behaviors in rodents provides evidence for the utility of TRPM8 antagonists of the formula (I) in treating or preventing a disease, syndrome, disorder, or condition in a subject in which the disease, syndrome, disorder or condition is affected by the modulation of TRPM8 receptors.
Male Sprague Dawley rats (220-450 g, Charles River Labs, n=6-9/treatment) may be used to evaluate the ability of selected compounds of the formula (I) to block icilin-induced “wet-dog” shakes (WDS). Compounds of the formula (I) may be administered in an appropriate vehicle, such as hydroxypropyl-β-cyclodextrin (HPIβCD), methocellulose, 10% Solutol, or H2O, or the like, by the appropriate route, i.p. or p.o., 30-120 minutes before icilin. Icilin may be administered in PEG-400 or 10% solutol/H2O, at 1.0 or 3.0 mg/kg, i.p. and spontaneous “wet-dog” shakes may be counted 10-20 minutes post-icilin.

[3] = molecular target: TRPM8 (Mus musculus (Mouse), UniProt Q8R4D5); conditions: TRPM8 transfected cells (Behrendt H J et al. 2004); cited from earlier work
[4] = HEK293 cells stably expressing canine TRPM8
[5] = HEK293, @ 0.2 μM, HEK293 cells stably expressing canine TRPM8, read-out: % Inh (%) @ 0.2 μM
[6] = vehicle 20% HPβCD, form CO2−Na+
[7] = HEK293, read-out: % Inh (%) @ 0.2 μM

canine TRPM8, sequence (Q1A7N1 1-1104): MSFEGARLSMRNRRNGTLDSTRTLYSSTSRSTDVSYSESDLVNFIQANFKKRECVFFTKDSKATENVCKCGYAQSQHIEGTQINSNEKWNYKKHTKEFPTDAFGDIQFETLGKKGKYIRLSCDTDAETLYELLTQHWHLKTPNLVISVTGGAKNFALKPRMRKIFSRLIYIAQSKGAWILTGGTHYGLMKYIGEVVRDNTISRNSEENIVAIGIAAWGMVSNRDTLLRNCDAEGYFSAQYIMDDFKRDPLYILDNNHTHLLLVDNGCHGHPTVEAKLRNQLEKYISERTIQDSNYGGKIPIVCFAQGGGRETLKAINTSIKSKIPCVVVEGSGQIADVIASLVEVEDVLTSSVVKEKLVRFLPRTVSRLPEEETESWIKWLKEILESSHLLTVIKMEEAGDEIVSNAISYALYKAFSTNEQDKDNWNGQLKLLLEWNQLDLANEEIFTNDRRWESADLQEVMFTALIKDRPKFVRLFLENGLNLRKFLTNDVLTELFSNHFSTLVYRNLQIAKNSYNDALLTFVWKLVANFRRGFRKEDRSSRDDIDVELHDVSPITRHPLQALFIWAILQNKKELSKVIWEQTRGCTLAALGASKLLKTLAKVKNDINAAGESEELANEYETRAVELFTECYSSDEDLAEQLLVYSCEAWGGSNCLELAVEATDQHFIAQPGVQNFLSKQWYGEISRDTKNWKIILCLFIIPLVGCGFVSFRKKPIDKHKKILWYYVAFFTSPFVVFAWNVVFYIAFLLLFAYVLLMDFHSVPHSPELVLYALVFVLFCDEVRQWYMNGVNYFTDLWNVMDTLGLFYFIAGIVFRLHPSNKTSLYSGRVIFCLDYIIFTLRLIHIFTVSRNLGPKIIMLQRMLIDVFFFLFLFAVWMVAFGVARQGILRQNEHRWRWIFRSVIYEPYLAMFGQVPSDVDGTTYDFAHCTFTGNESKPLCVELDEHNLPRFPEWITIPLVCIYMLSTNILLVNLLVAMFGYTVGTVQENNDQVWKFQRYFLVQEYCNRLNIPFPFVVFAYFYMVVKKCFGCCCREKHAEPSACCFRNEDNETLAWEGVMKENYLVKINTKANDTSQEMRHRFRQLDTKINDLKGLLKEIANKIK
TRPM8, sequence (Q8R4D5 whole entry): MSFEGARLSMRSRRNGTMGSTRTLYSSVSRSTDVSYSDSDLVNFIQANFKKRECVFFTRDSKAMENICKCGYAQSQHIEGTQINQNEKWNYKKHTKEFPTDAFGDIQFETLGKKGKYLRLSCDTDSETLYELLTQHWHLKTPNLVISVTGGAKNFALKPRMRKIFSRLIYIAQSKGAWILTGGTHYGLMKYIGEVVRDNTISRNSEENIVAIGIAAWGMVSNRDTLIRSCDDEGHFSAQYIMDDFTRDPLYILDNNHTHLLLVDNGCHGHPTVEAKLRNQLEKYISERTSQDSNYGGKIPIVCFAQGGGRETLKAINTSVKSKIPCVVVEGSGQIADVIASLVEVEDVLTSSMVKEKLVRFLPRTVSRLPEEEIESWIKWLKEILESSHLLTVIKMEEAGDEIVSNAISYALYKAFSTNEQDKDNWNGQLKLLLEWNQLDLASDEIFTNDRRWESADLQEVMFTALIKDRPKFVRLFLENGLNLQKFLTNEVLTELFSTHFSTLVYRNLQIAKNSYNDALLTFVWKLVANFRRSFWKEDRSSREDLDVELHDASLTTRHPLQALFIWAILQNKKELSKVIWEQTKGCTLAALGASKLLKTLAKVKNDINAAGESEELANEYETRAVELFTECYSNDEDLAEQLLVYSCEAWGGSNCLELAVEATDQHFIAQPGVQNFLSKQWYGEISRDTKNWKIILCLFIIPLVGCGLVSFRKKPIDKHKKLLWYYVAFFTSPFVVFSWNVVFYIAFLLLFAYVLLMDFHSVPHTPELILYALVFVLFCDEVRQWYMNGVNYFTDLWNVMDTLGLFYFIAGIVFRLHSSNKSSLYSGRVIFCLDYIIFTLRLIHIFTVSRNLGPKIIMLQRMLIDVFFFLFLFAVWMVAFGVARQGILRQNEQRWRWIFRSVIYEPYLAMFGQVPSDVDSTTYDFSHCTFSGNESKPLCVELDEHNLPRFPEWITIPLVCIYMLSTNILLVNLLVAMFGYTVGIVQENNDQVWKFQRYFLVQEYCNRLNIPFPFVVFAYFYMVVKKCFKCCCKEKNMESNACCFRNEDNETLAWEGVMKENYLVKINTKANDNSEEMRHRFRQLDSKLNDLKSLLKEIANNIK

SMILES | inhibition at 0.2 µM [1, 5] [%] | IC50 [1, 4] | further results
O=S(=O)(c1ccccc1)N(Cc1ccc(F)c(C(F)(F)F)c1)c1nc2ccc(Cl)cn2c1Cl [Compound 8] | 97 | 18.3 nM and 23.5 nM and 28.6 nM | % Inh (%) @ 0.2 μM [1, 4]: 96%; % Inhibition ([2]; vehicle 10% Solutol, form Hydrochloride): 15.5%
Cc1c(N(Cc2ccc(C(F)(F)F)c(F)c2)S(=O)(=O)c2ccccc2)nc2ccc(Cl)cn12 [Compound 38] | 100 |  | % Inhibition ([2]; vehicle 20% HPβCD, form Hydrochloride): 6.5%
Cc1c(N(Cc2ccc(OC(F)(F)F)cc2)S(=O)(=O)c2ccc(-n3cccn3)cc2)nc2ccc(Cl)cn12 [Compound 104] | 93 | 51.6 nM | 
Cc1c(N(Cc2ccc(C(F)(F)F)cc2)S(=O)(=O)c2ccc(-n3cccn3)cc2)nc2ccc(Cl)cn12 [Compound 105] | 98 | 30.3 nM | 
Cc1c(N(Cc2ccc(OC(F)(F)F)cc2)S(=O)(=O)CCN(CC(C)C)CC(C)C)nc2cc(C(F)(F)F)ccn12 [Compound 106, N-(4-Trifluoromethoxybenzyl)-N-(7-trifluoromethyl-3-methylimidazo[1,2-a]pyridin-2-yl)-2-(N,N-diisobutylamino)ethylsulfonamide] |  |  | EC50 [1, 4]: 93 nM
Cc1c(N(Cc2ccc(OC(F)(F)F)cc2)S(=O)(=O)c2ccc(C(=O)[O-])cc2)nc2ccccn12.[Na+] [Compound 107] |  | 5.68 nM | % Inh (%) @ 0.2 μM [1, 4]: 101%; % Inhibition [2, 6]: −20.6%
COC(=O)c1ccc(S(=O)(=O)N(Cc2ccc(OC(F)(F)F)cc2)c2nc3ccccn3c2C(C)C)cc1 [Compound 108] |  | 10.4 nM | % Inh (%) @ 0.2 μM [1, 4]: 101%
CC(C)c1c(N(Cc2ccc(OC(F)(F)F)cc2)S(=O)(=O)c2ccc(C(=O)[O-])cc2)nc2ccccn12.[Na+] [Compound 109] |  | 2.31 nM | % Inh (%) @ 0.2 μM [1, 4]: 101%; % Inhibition [2, 6]: −7.5%
COC(=O)c1ccc(S(=O)(=O)N(Cc2ccc(OC(F)(F)F)cc2)c2nc3ccc(Cl)cn3c2C)cc1 [Compound 110, Methyl 4-(N-(6-Chloro-3-methylimidazo[1,2-a]pyridin-2-yl)-N-(4-trifluoromethoxybenzyl)sulfamoyl)benzoate] | 82 | 57.2 nM | 
COC(=O)c1ccc(S(=O)(=O)N(Cc2ccc(F)c(F)c2)c2nc3ccc(Cl)cn3c2C)cc1 [Compound 111] | 73 | 81.5 nM | 
COC(=O)c1ccc(S(=O)(=O)N(Cc2ccc(F)c(C(F)(F)F)c2)c2nc3ccc(Cl)cn3c2C)cc1 [Compound 112] | 83 | 82.1 nM | 
Cc1c(N(Cc2ccc(OC(F)(F)F)cc2)S(=O)(=O)c2ccc(C(=O)O)cc2)nc2ccc(Cl)cn12 [Compound 113, Sodium 4-(N-(6-Chloro-3-methylimidazo[1,2-a]pyridin-2-yl)-N-(4-trifluoromethoxybenzyl)sulfamoyl)benzoate] |  | 14.6 nM | inhibition at 0.2 µM [1, 7]: 102%
Cc1c(N(Cc2ccc(F)c(F)c2)S(=O)(=O)c2ccc(C(=O)O)cc2)nc2ccc(Cl)cn12 [Compound 114] |  |  | inhibition at 0.2 µM [1, 7]: 38%
Cc1c(N(Cc2ccc(F)c(C(F)(F)F)c2)S(=O)(=O)c2ccc(C(=O)O)cc2)nc2ccc(Cl)cn12 [Compound 115] |  |  | inhibition at 0.2 µM [1, 7]: 96%
COC(=O)c1ccc(S(=O)(=O)N(Cc2ccc(OC(F)(F)F)cc2)c2nc3ccccn3c2Cl)cc1 [Compound 116] | 102 | 5.29 nM | 
Cc1cccn2c(C)c(N(Cc3ccc(OC(F)(F)F)cc3)S(=O)(=O)c3ccc(C(=O)[O-])cc3)nc12.[Na+] [Compound 117] |  | 13.5 nM | % Inh (%) @ 0.2 μM [1, 4]: 101%
COC(=O)c1ccc(S(=O)(=O)N(Cc2ccc(OC(F)(F)F)cc2)c2nc3ccc(F)cn3c2C)cc1 [Compound 118, Methyl 4-(N-(6-fluoro-3-methylimidazo[1,2-a]pyridin-2-yl)-N-(4-(trifluoromethoxy)benzyl)sulfamoyl)benzoate] | 100 | 18 nM | 
COC(=O)c1ccc(S(=O)(=O)N(Cc2ccc(F)c(C(F)(F)F)c2)c2nc3ccc(F)cn3c2C)cc1 [Compound 119, Methyl 4-(N-(6-fluoro-3-methylimidazo[1,2-a]pyridin-2-yl)-N-(4-fluoro-3-(trifluoromethyl)benzyl)sulfamoyl)benzoate] | 100 | 23.9 nM | 
Cc1c(N(Cc2ccc(OC(F)(F)F)cc2)S(=O)(=O)c2ccc(C(=O)O)cc2)nc2ccc(F)cn12 [Compound 120, Sodium 4-(N-(6-fluoro-3-methylimidazo[1,2-a]pyridin-2-yl)-N-(4-(trifluoromethoxy)benzyl)sulfamoyl)benzoate] |  | 12.2 nM | inhibition at 0.2 µM [1, 7]: 102%
Cc1c(N(Cc2ccc(F)c(C(F)(F)F)c2)S(=O)(=O)c2ccc(C(=O)O)cc2)nc2ccc(F)cn12 [Compound 121, Sodium 4-(N-(6-fluoro-3-methylimidazo[1,2-a]pyridin-2-yl)-N-(4-fluoro-3-(trifluoromethyl)benzyl)sulfamoyl)benzoate] |  | 32.8 nM | inhibition at 0.2 µM [1, 7]: 101%
Cc1c(N(Cc2ccc(OC(F)(F)F)cc2)S(=O)(=O)c2ccc(C(=O)O)cc2)nc2c(F)cccn12 [Compound 122] |  | 4.03 nM | % Inh (%) @ 0.2 μM [1, 4]: 99%
O=C1NC(c2cccc([N+](=O)[O-])c2)=CCN1c1ccccc1O [icilin] |  |  | EC50 [3]: 200 nM
